Results from US10736326B2, “Nematode dispersant composition and method” (PHERONYM, INC., priority 2016, dated 2020).
Entries after “also recorded” stand apart in the source; their conditions may differ.

Tested on: S. feltiae infective juveniles (IJ)
Assay: Dispersal assay with S. feltiae infective juveniles on agar plates
Type: in vivo, Steinernema feltiae
Settings: S. feltiae IJs; for dispersal activity in combination with fractions B and C: ascr#11 1.3 pmol/μl, FIG. 1C, 1D; for dispersal activity by itself: physiologically relevant concentration (ascr#9 40.3 pmol/μl, ascr#11 1.3 pmol/μl), FIG. 1B
Protocol: The dispersal assay for the activity guided purification in FIG. 1 used S. feltiae IJs that were washed with MILLI-Q water three times and incubated in 6 cm petri dishes for 36 h with a small amount (4-5 ml) of MILLI-Q water. The following day, nematodes were placed on a 10.7 g/L agar with gel strength 1010 g/cm^2 (PhytoTechnology Lab. Shawnee Mission, Kans.). Nematode behavior was assayed on multiple plates with internal plate replicates to rule out the possibility that behavior was affected by plate composition. Approximately 300 IJs in 10 μl water were placed on an agar medium and the test compounds or extracts were placed into 1-2 μl to the nematode suspension. Upon absorption (15-20 min) of the liquid, the freely moving nematodes were video-recorded for 5-10 min. Dispersal behavior is temperature and season dependent. During winter, the assay is effective at RT (22±1° C.). During summer, the assay requires a temperature-controlled environment due to effects on nematode behavior above 23° C.
Activity guided fractionation was conducted as described by Srinivasan et al 2008 with modifications. A total of 33 insect host cadavers (G. mellonella larvae) were placed into 70% EtOH and stored at −20° C. until extraction. The insect cadavers were homogenized using 1 g of ceramic zirconium beads (1.25 mm) (ZIRMIL) in 2 ml tubes for 37 sec using a Precellys24 (http://www.precellys.com) homogenizer. Samples were centrifuged for 15 min at 18400 rcf and the supernatant was lyophilized and resuspended in MILLI-Q water. The dispersal activity of nematodes was tested using the dispersal assay described herein above and a physiologically relevant concentration of insect host cadaver extract or fractionated extract. To facilitate calculations for physiologically relevant concentration of the ascarosides, wax worm volume was estimated at 200 μl; the average weight of wax worms was 232 (+/−57 mg; n=19).
The first reverse-phase solid-phase extraction was performed using Sep-Pak Plus C18 cartridges (Waters corporation, Milford, Mass.). The initially collected flow through was termed Fraction A. Thereafter, the column was washed with water, collected and saved. Subsequently, the column was eluted with 50% (Fraction B) and 90% MeOH (Fraction C). The fractions were tested for dispersal activity both individually and in combination. Also individual fractions were analyzed by LC-MS. Fraction A contained ascr#9, which was collected by LC-MS and tested for activity with Fraction B+C.
A total of 33 insect host cadavers ([…] larvae) were placed into 70% EtOH and were homogenized using 1 g of ceramic zirconium beads (1.25 mm) (ZIRMIL) in 2 ml tubes for 37 sec using a Precellys24 (http://www.precellys.com) homogenizer. Samples were centrifuged for 15 min at 18400 rcf and the supernatant was lyophilized and resuspended in MILLI-Q water. The dispersal activity of nematodes was tested using the dispersal assay described herein above. The extracts were resuspended in water as 10 times concentrated. The average weight of insect host is estimated 200 microL and therefore the dry cadavers extract from 1 insect equivalent was diluted in 20 microL of water. One microL of the concentrated extracts was added to the 10 ul of IJ water suspension.

## C[C@H](CC(=O)O)O[C@@H]1O[C@@H](C)[C@H](O)C[C@H]1O [ascr#11]
  dispersal activity in combination with fractions B and C: sufficient to cause dispersal; also recorded: active with the other two fractions
  dispersal activity by itself: not active by themselves

## C[C@H](CCC(=O)O)O[C@@H]1O[C@@H](C)[C@H](O)C[C@H]1O [ascr#9]
Listed as natural ascr#9
  dispersal activity in combination with fractions B and C: active
Listed as synthetic ascr#9
  dispersal activity in combination with fractions B and C: confirms the active component
  dispersal activity by itself: not active by themselves
